Legend:
[1] = system: Rat sciatic nerve Schwann cell lines cells with murine DRG neurons; test: Co-culture of DRG neuronal cells with fluorogold-labeled Schwann cells; type: cell-based
Excerpt: By culturing murine DRG in the presence of DNA synthesis inhibitors arabinoseC (AraC) and fluorodeoxyuridine (FudR), neuronal cells can develop axons while glial cell proliferation is inhibited. These DRG cultures can be used as a source of neuronal cells with non-myelinated axons. Schwann cells are exogenously added to these cultures to study the interaction between neurons and Schwann cells.
Rat sciatic nerve Schwann cell lines cells were labeled with fluorogold, a label that penetrates the cell membrane lipid bi-layer and is maintained for an extensive period of time without affecting cell function. […] This system allows to study the various steps in the myelination process which are affected by the IL-6 chimera.

[2] = system: dorsal root ganglia (DRG) explants, embryonic Schwann cells; test: Embryonic dorsal root ganglia (DRG) explant cultures: microscopy, scanning EM, anti-MBP staining; type: cell-based, mouse; details: IL6RIL6 3 μg/ml, NGF 40 ng/ml
Procedure: In the spinal cord, the dorsal root comprises essentially sensory neurons, which form synapses in the dorsal root ganglia (DRG). During mouse embryogenesis (at day e14–e15), DRGs are a convenient source of neurons and of embryonic Schwann cells which have not yet differentiated into myelinating SC. Procedures to obtain explants of DRGs for in vitro cultures are described by Li (1998). The cultures were performed on glass coverslips placed in the wells of Costar plates, in medium F12/DMEM (Gibco). The coverslips were coated either with collagen or with poly-D-lysine, with essentially similar results. Cultures were either done in medium without growth factor or cytokine additions or in medium supplemented with nerve growth factor (NGF, 40 ng/ml), or in medium supplemented with IL6RIL6 chimeric recombinant proteins (3 μg/ml). The cultures were examined daily by light microscopy with an Olympus inverted microscope linked to a video-camera imaging system (Leica LIDA system). Part of the coverslips were fixed in paraformaldehyde and MBP proteins were labeled with monoclonal primary antibodies to myelin basic proteins and fluorescein-conjugated secondary antibody. Neuronal cell bodies and axons were stained with antibodies to neurofilament protein. Some of the coverslips were examined by scanning electron microscopy (EM).

[3] = system: hippocampal organotypic slices; test: NMDA-induced cell death in hippocampal organotypic slices, propidium iodide; type: cell-based, rat; details: 0.1 ng/ml
Procedure: The cultures were prepared as previously described by Bahr et al. (Bahr 1995) with minor modifications. Hippocampi were dissected out from eight day old Wistar rats and 400 μm thick slices were laid down on a porous and transparent Millicell-CM membrane (Millipore) and cultured in 6 wells multiwell plates. Four slices were placed on each membrane. Culture medium consisted of 50% minimal essential medium (+25 mM HEPES, +4 mM NaHCO3+NaOH pH 7.2), 25% horse serum and 25% Hanks' solution, glucose (6.4 g/l), penicillin/streptomycin (10 ml/l), L-glutamine (2 mM). Cultures were kept in a 5% CO2 incubator set at a temperature of 37° C. for at least 3 weeks before being used. Medium was changed every week.
Hippocampal slices were exposed to IL6 or to the IL6 chimera at concentrations ranging […] for 15 min, thereafter NMDA 50 μM was added for additional 30 min. […] NMDA-induced cell death was evaluated either 1 or 3–7 days after the experimental injury by incubating cultures for 1 hour in fresh medium containing propidium iodide (PI 5 μl/ml). […] The emitted red fluorescence (marker of cell death) was examined using an inverted fluorescence microscope (Zeiss) associated with an intensified charged-coupled device camera. Quantification of total fluorescence was performed by an image analysis system (Image Pro Plus).

[4] = system: rat cerebellar granule cells; test: Glutamate-induced neurotoxicity in primary cerebellar granule cells; type: cell-based; details: 0.1 to 10 ng/ml; glutamate 50 μM
Procedure: Activation of glutamate ionotropic receptors represents the primary event in the neurotoxicity process triggered by excitatory amino acids. Primary cultures of new born rat cerebella neurons (which contain >97% neurons) were employed for studying the effects of the IL6 chimera on glutamate-induced neurotoxicity and compared to the effects of IL-6.
Primary cultures of cerebellar granule cells were prepared from 8 day-old Sprague-Dawley rat pups as previously described (Pizzi et al. 1993). Cells were plated onto poly-L-Lysine-coated dishes and cultured in basal Eagle's medium containing 10% heat-inactivated foetal bovine serum, glutamine (2 mM), gentamicin (50 μg/ml), and KCl (25 mM), at a density of 2.5×10^5 cells/cm^2. Cytosine Arabinoside (10 μM) was added to the cultures 18 h after seeding to prevent non neuronal cell proliferation. Experiments were carried out after culturing the neurons for 10 days.
Unless otherwise indicated, cultures were exposed for 15 min to 50 μM glutamate in a Mg^2+-free Locke's solution. IL6 or the IL6 chimera were added 5 min before glutamate treatment. Dishes were then returned to cultured conditioned medium at 37° C. in 95% air/5% CO2 and cell viability was measured 18–24 hours later.
Cell viability was evaluated 18 h later by intravital staining with fluorescein diaceate and propidium iodide mixture, as previously described (Pizzi et al. 1993). […]

Substance | sheath formation around the axons ([1]; after a few days) | binding of the Schwann cells along the axons ([1]; within 5 hours) | Staining with anti-MBP [2] | Schwann cells along axons in DRG explant cultures ([2]; after 2 to 5 days) | neuronal cells protected from NMDA-induced cell death ([3]; after one day, NMDA 50 μM) | cells protected from NMDA-induced cell death ([3]; day 5) [%] | protection from glutamate-induced neurotoxicity [4]
NGF: nerve growth factor | do not form a sheath | bind much less | little MBP-specific fluorescence | no Schwann cells were observed along the axons |  |  | 
IL-6: Interleukin-6, cytokine used as comparator |  |  |  |  | approximately 50% | 30 | no protective effect

Source: patent US7201896B1, “IL6RIL6 chimera for the treatment of neurodegenerative diseases” (Yeda Research and Development Company Ltd., priority 1999, dated 2007)
